Measured values as given in patent US11707539B2, “FAP-targeted radiopharmaceuticals and imaging agents, and uses related thereto” (Trustees of Tufts College, priority 2020, dated 2023).

System: HEK-mFAP tumor-bearing mice
Assay: 68Ga biodistribution, gamma counting after 50 min uptake
Type: in vivo, mouse
Description: Part 2 Biodistribution. The aim of the study is to assess ^68Ga-6555 biodistribution in HEK-mFAP tumor-bearing mice. HEK-mFAP tumor-bearing mice were used for the study (N=3). The mice were injected with ˜8 MBq (7.3-8.5 MBq range) of ^68Ga-6555 (prepared as per Example 20; IV through the tail vein using a catheter mounted with a 30 Ga needle). After 50 min uptake time (injection was performed under anesthasia using isoflurane inhalant, and stayed under anesthesia for 50 min), the mice were euthanized (with CO2) and tissues were collected (blood via cardiac puncture, heart, lungs, liver, spleen, pancreas, stomach, small intestine, kidney, muscle, femur, bone, skin, brain, tumor). After excision, the tissue samples were counted for gallium-68 radioactivity on a Cobra-II Auto-Gamma counter (Packard Instruments, Meriden, CTA), weighted, and data were expressed as % injected dose per gram (% ID/g).
Conducted as per Example 24 using ^68Ga-6952 prepared as per Example 22.
Biodistribution. The mice were injected with ˜8.6 MBq (7.6-10.0 MBq range). The majority of activity was located in the tumor (average % ID/g of 8.8). The kidney has the next largest amount of activity (average % ID/g of 2.18). […]

C[C@@H](NC(=O)c1ccc(CNC(=O)CN2CCN3CCN4CCN(CC2)CC(=O)[O][Ga]([O]C(=O)C3)[O]C(=O)C4)cc1)C(=O)N1CCC[C@H]1B(O)O [[^68Ga]-6555]
uptake in all other selected tissues (50 min uptake time, IV): low level of uptake comparable to the muscle | % ID/g Blood, AVERAGE (Blood, 50 min uptake after IV injection, average of N=3 mice): 0.57 % ID/g | % ID/g Blood, mouse #002 (Blood, 50 min uptake, individual mouse #002): 0.67 % ID/g | % ID/g Blood, mouse #005 (Blood, 50 min uptake, individual mouse #005): 0.38 % ID/g | % ID/g Blood, mouse #009 (Blood, 50 min uptake, individual mouse #009): 0.64 % ID/g | % ID/g Bone (femur), AVERAGE (Bone (femur), 50 min uptake after IV injection, average of N=3 mice): 0.33 % ID/g | % ID/g Bone (femur), mouse #002 (Bone (femur), 50 min uptake, individual mouse #002): 0.31 % ID/g | % ID/g Bone (femur), mouse #005 (Bone (femur), 50 min uptake, individual mouse #005): 0.50 % ID/g | % ID/g Bone (femur), mouse #009 (Bone (femur), 50 min uptake, individual mouse #009): 0.20 % ID/g | % ID/g Brain, AVERAGE (Brain, 50 min uptake after IV injection, average of N=3 mice): 0.07 % ID/g | % ID/g Brain, mouse #002 (Brain, 50 min uptake, individual mouse #002): 0.03 % ID/g | % ID/g Brain, mouse #005 (Brain, 50 min uptake, individual mouse #005): 0.07 % ID/g | % ID/g Brain, mouse #009 (Brain, 50 min uptake, individual mouse #009): 0.10 % ID/g | % ID/g Heart, AVERAGE (Heart, 50 min uptake after IV injection, average of N=3 mice): 0.34 % ID/g | % ID/g Heart, mouse #002 (Heart, 50 min uptake, individual mouse #002): 0.41 % ID/g | % ID/g Heart, mouse #005 (Heart, 50 min uptake, individual mouse #005): 0.17 % ID/g | % ID/g Heart, mouse #009 (Heart, 50 min uptake, individual mouse #009): 0.43 % ID/g | % ID/g Kidneys, AVERAGE (Kidneys, 50 min uptake after IV injection, average of N=3 mice): 1.37 % ID/g | % ID/g Kidneys, mouse #002 (Kidneys, 50 min uptake, individual mouse #002): 1.50 % ID/g | % ID/g Kidneys, mouse #005 (Kidneys, 50 min uptake, individual mouse #005): 1.03 % ID/g | % ID/g Kidneys, mouse #009 (Kidneys, 50 min uptake, individual mouse #009): 1.58 % ID/g | % ID/g Liver, AVERAGE (Liver, 50 min uptake after IV injection, average of N=3 mice): 1.01 % ID/g | % ID/g Liver, mouse #002 (Liver, 50 min uptake, individual mouse #002): 1.00 % ID/g | % ID/g Liver, mouse #005 (Liver, 50 min uptake, individual mouse #005): 0.79 % ID/g | % ID/g Liver, mouse #009 (Liver, 50 min uptake, individual mouse #009): 1.23 % ID/g | % ID/g Lungs, AVERAGE (Lungs, 50 min uptake after IV injection, average of N=3 mice): 0.56 % ID/g | % ID/g Lungs, mouse #002 (Lungs, 50 min uptake, individual mouse #002): 0.62 % ID/g | % ID/g Lungs, mouse #005 (Lungs, 50 min uptake, individual mouse #005): 0.39 % ID/g | % ID/g Lungs, mouse #009 (Lungs, 50 min uptake, individual mouse #009): 0.67 % ID/g | % ID/g Muscle, AVERAGE (Muscle, 50 min uptake after IV injection, average of N=3 mice): 0.74 % ID/g | % ID/g Muscle, mouse #002 (Muscle, 50 min uptake, individual mouse #002): 0.09 % ID/g | % ID/g Muscle, mouse #005 (Muscle, 50 min uptake, individual mouse #005): 0.21 % ID/g | % ID/g Muscle, mouse #009 (Muscle, 50 min uptake, individual mouse #009): 1.92 % ID/g | % ID/g Pancreas, AVERAGE (Pancreas, 50 min uptake after IV injection, average of N=3 mice): 0.92 % ID/g | % ID/g Pancreas, mouse #002 (Pancreas, 50 min uptake, individual mouse #002): 1.41 % ID/g | % ID/g Pancreas, mouse #005 (Pancreas, 50 min uptake, individual mouse #005): 0.93 % ID/g | % ID/g Pancreas, mouse #009 (Pancreas, 50 min uptake, individual mouse #009): 0.42 % ID/g | % ID/g Skin, AVERAGE (Skin, 50 min uptake after IV injection, average of N=3 mice): 0.28 % ID/g | % ID/g Skin, mouse #002 (Skin, 50 min uptake, individual mouse #002): 0.31 % ID/g | % ID/g Skin, mouse #005 (Skin, 50 min uptake, individual mouse #005): 0.27 % ID/g | % ID/g Skin, mouse #009 (Skin, 50 min uptake, individual mouse #009): 0.25 % ID/g | % ID/g Small intestine, AVERAGE (Small intestine, 50 min uptake after IV injection, average of N=3 mice): 0.31 % ID/g | % ID/g Small intestine, mouse #002 (Small intestine, 50 min uptake, individual mouse #002): 0.39 % ID/g | % ID/g Small intestine, mouse #005 (Small intestine, 50 min uptake, individual mouse #005): 0.19 % ID/g | % ID/g Small intestine, mouse #009 (Small intestine, 50 min uptake, individual mouse #009): 0.35 % ID/g | % ID/g Spleen, AVERAGE (Spleen, 50 min uptake after IV injection, average of N=3 mice): 0.77 % ID/g | % ID/g Spleen, mouse #002 (Spleen, 50 min uptake, individual mouse #002): 0.23 % ID/g | % ID/g Spleen, mouse #005 (Spleen, 50 min uptake, individual mouse #005): 0.74 % ID/g | % ID/g Spleen, mouse #009 (Spleen, 50 min uptake, individual mouse #009): 1.34 % ID/g | % ID/g Stomach, AVERAGE (Stomach, 50 min uptake after IV injection, average of N=3 mice): 0.20 % ID/g | % ID/g Stomach, mouse #002 (Stomach, 50 min uptake, individual mouse #002): 0.07 % ID/g | % ID/g Stomach, mouse #005 (Stomach, 50 min uptake, individual mouse #005): 0.21 % ID/g | % ID/g Stomach, mouse #009 (Stomach, 50 min uptake, individual mouse #009): 0.32 % ID/g | % ID/g Tumor, AVERAGE (Tumor (HEK-mFAP), 50 min uptake after IV injection, average of N=3 mice): 10.10 % ID/g | % ID/g Tumor, mouse #002 (Tumor (HEK-mFAP), 50 min uptake, individual mouse #002): 10.01 % ID/g | % ID/g Tumor, mouse #005 (Tumor (HEK-mFAP), 50 min uptake, individual mouse #005): 8.47 % ID/g | % ID/g Tumor, mouse #009 (Tumor (HEK-mFAP), 50 min uptake, individual mouse #009): 11.83 % ID/g | average % ID/g (kidney, 50 min uptake time, IV): 1.37 % ID/g | average % ID/g (tumor, 50 min uptake time, IV): 10.1 % ID/g
